In patent US8299056B2 (Signal Pharmaceuticals, LLC, priority 2008, dated 2012):

Biological target: T1, Syk (Homo sapiens, UniProt P43405)
T1 construct: purchased Carna Biosciences
Assay: Syk HTRF assay
Type: biochemical
Settings: IC50 activity level, read-out: Activity Level
Procedure, shortened: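 Read-out is the 665 nm/615 nm time-resolved fluorescence ratio after EDTA stop and Eu-anti-phosphotyrosine plus streptavidin-DyLight 647 detection. Reaction ran 1 h at room temperature with start mix of 87.5 μM ATP and 80 nM substrate peptide in pH 7.6 HEPES/MgCl2 buffer.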

First: NC(=O)c1cccc(Cc2cccc3nc(Nc4ccccc4)nn23)c1 [Example 442, 3-((2-(phenylamino)-[1,2,4]triazolo[1,5-a]pyridin-5-yl)methyl)benzamide]
Second: COc1cc(-c2cccc3nc(Nc4ccccc4)nn23)ccn1 [Example 521]
The IC50 of the first is lower: 250 to 500 nM for the first, 500 to 1000 nM for the second. The first is the more potent here.

`NCCNc1cc(-c2cccc3nc(Nc4ccccc4)nn23)ccn1` [Example 447, N^1-(4-(2-(phenylamino)-[1,2,4]triazolo[1,5-a]pyridin-5-yl)pyridin-2-yl)ethane-1,2-diamine] and `Fc1ccc(Nc2nc3cccc(-c4ccc5cn[nH]c5c4)n3n2)cc1` [Example 436, N-(4-fluorophenyl)-5-(1H-indazol-6-yl)-[1,2,4]triazolo[1,5-a]pyridin-2-amine] fall in the same range of IC50: 0.005 to 250 nM for the first, 0.005 to 250 nM for the second.

First: O=C(N[C@H]1CCCNC1)c1cccc2nc(Nc3ccccc3)nn12 [Example 504, (S)-2-(phenylamino)-N-(piperidin-3-yl)-[1,2,4]triazolo[1,5-a]pyridine-5-carboxamide]
Second: NC(=O)c1ccc(Nc2nc3cccc(N[C@H]4CC[C@@H](O)CC4)n3n2)cc1 [Example 429, cis-4-(5-(4-hydroxycyclohexylamino)-[1,2,4]triazolo[1,5-a]pyridin-2-ylamino)benzamide]
The IC50 of the first is higher: 1000 to 10000 nM for the first, 0.005 to 250 nM for the second. The second is the more potent here.

`CC1(C)C(=O)Nc2cc(Nc3nc4cccc(CC5CCOC5)n4n3)ccc21` (single isomer, unassigned; enantiomer 1) [Example 561, 3,3-dimethyl-6-(5-((tetrahydrofuran-3-yl)methyl)-[1,2,4]triazolo[1,5-a]pyridin-2-ylamino)indolin-2-one (enantiomer 1)] and `Cn1c(=O)[nH]c2cc(Nc3nc4cccc(CC5CCOCC5)n4n3)ccc21` [Example 532, 1-methyl-5-(5-((tetrahydro-2H-pyran-4-yl)methyl)-[1,2,4]triazolo[1,5-a]pyridin-2-ylamino)-1H-benzo[d]imidazol-2(3H)-one] fall in the same range of IC50: 0.005 to 250 nM for the first, 0.005 to 250 nM for the second.

Molecule `NC(=O)c1ccc(Nc2nc3cccc(NC4CCC(N)CC4)n3n2)cc1` (stereo in doubt) [Example 492, trans-4-(5-(4-aminocyclohexylamino)-[1,2,4]triazolo[1,5-a]pyridin-2-ylamino)benzamide] has an IC50 of 0.005 to 250 nM.

Same assay, conditions: activity levels A-D, read-out: Activity Level (IC50 in the Syk HTRF assay)

First: C[C@@H](CO)Nc1cccc2nc(Nc3ccc(C(F)(F)F)cc3)nn12 [Example 329, (S)-2-(2-(4-(trifluoromethyl)phenylamino)-[1,2,4]triazolo[1,5-a]pyridin-5-ylamino)propan-1-ol]
Second: O=C1CN(Cc2cccc3nc(Nc4ccc(C(F)(F)F)cc4)nn23)CN1 [Example 301, 1-((2-(4-(trifluoromethyl)phenylamino)-[1,2,4]triazolo[1,5-a]pyridin-5-yl)methyl)imidazolidin-4-one]
The IC50 of the first is lower: 500 to 1000 nM for the first, 1000 to 10000 nM for the second. The first is the more potent here.

`COc1cccc(Nc2nc3cccc(N[C@H]4CC[C@@H](O)CC4)n3n2)c1` [Example 338, cis-4-(2-(3-methoxyphenylamino)-[1,2,4]triazolo[1,5-a]pyridin-5-ylamino)cyclohexanol] and `Cc1cc(Nc2nc3cccc(N[C@H]4CC[C@@H](O)CC4)n3n2)ccc1F` [Example 320, cis-4-(2-(4-fluoro-3-methylphenylamino)-[1,2,4]triazolo[1,5-a]pyridin-5-ylamino)cyclohexanol] fall in the same range of IC50: 0.005 to 250 nM for the first, 0.005 to 250 nM for the second.

`Cc1ccc(Nc2nc3cccc(-c4ccc5nc(CO)[nH]c5c4)n3n2)cn1` [Example 285, (6-(2-(6-methylpyridin-3-ylamino)-[1,2,4]triazolo[1,5-a]pyridin-5-yl)-1H-benzo[d]imidazol-2-yl)methanol] and `Cc1ccc(Nc2nc3cccc(N[C@H]4CC[C@@H](O)CC4)n3n2)cc1` [Example 343, cis-4-(2-(p-tolylamino)-[1,2,4]triazolo[1,5-a]pyridin-5-ylamino)cyclohexanol] fall in the same range of IC50: 0.005 to 250 nM for the first, 0.005 to 250 nM for the second.

Compared with `FC(F)(F)c1ccc(Nc2nc3cccc(Cc4ccncc4)n3n2)cc1` [Example 372, 5-(pyridin-4-ylmethyl)-N-(4-(trifluoromethyl)phenyl)-[1,2,4]triazolo[1,5-a]pyridin-2-amine], `O=C1CN(Cc2cccc3nc(Nc4ccc(C(F)(F)F)cc4)nn23)CCN1` [Example 388, 4-((2-(4-(trifluoromethyl)phenylamino)-[1,2,4]-triazolo[1,5-a]pyridin-5-yl)methyl)piperazin-2-one] is lower in IC50: 1000 to 10000 nM for the first, 0.005 to 250 nM for the second. The second is the more potent here.

First: CC(C)n1ncc2ccc(Nc3nc4cccc(N[C@H]5CC[C@@H](O)CC5)n4n3)cc21 [Example 243, cis-4-(2-(1-isopropyl-1H-indazol-6-ylamino)-[1,2,4]triazolo[1,5-a]pyridin-5-ylamino)cyclohexanol]
Second: N#Cc1cc(Nc2nc3cccc(N[C@H]4CC[C@@H](O)CC4)n3n2)ccn1 [Example 256, cis-4-(5-(4-hydroxycyclohexylamino)-[1,2,4]triazolo[1,5-a]pyridin-2-ylamino)picolinonitrile]
The IC50 of the first is lower: 0.005 to 250 nM for the first, 500 to 1000 nM for the second. The first is the more potent here.

`Cc1n[nH]c2cc(Nc3nc4cccc(N[C@H]5CCCC5O)n4n3)ccc12` (stereo in doubt) [Example 212, (1S,2S)-2-(2-(3-methyl-1H-indazol-6-ylamino)-[1,2,4]triazolo[1,5-a]pyridin-5-ylamino)cyclopentanol] and `CNC(=O)c1ccc(Nc2nc3cccc(CC4CCC(N)CC4)n3n2)cc1` (stereo not drawn) [Example 262, 4-(5-((4-aminocyclohexyl)methyl)-[1,2,4]triazolo[1,5-a]pyridin-2-ylamino)-N-methylbenzamide] fall in the same range of IC50: 0.005 to 250 nM for the first, 0.005 to 250 nM for the second.

Molecule `CO[C@H]1CC[C@@H](N(C)c2cccc3nc(Nc4ccc(C(F)(F)F)cc4)nn23)CC1` [Example 265, cis-N^5-(4-methoxycyclohexyl)-N^5-methyl-N^2-(4-(trifluoromethyl)phenyl)-[1,2,4]triazolo[1,5-a]pyridine-2,5-diamine] has an IC50 of 1000 to 10000 nM.

Same assay, conditions: read-out: Activity Level (Syk HTRF assay IC50)

First: NCc1ccc(Nc2nc3cccc(-c4cccc(O)c4)n3n2)cc1 [compound 24, 3-(2-(4-(aminomethyl)phenylamino)-[1,2,4]triazolo[1,5-a]pyridin-5-yl)phenol]
Second: NC(=O)c1ccc(Nc2nc3cccc(-c4ccccc4)n3n2)cc1F [compound 73, 2-fluoro-4-(5-phenyl-[1,2,4]triazolo[1,5-a]pyridin-2-ylamino)benzamide]
The IC50 of the first is lower: 250 to 500 nM for the first, 1000 to 10000 nM for the second.

`CC1(C)C(=O)Nc2cc(Nc3nc4cccc(NC5CCCNC5)n4n3)ccc21` (stereo in doubt) [Example 154, (S)-3,3-dimethyl-6-(5-(piperidin-3-ylamino)-[1,2,4]triazolo[1,5-a]pyridin-2-ylamino)indolin-2-one] and `CC1(C)C(=O)Nc2cc(Nc3nc4cccc(C[C@H]5CC[C@](C)(O)CC5)n4n3)ccc21` [Example 140, cis-6-(5-((4-hydroxy-4-methylcyclohexyl)methyl)-[1,2,4]triazolo[1,5-a]pyridin-2-ylamino)-3,3-dimethylindolin-2-one] fall in the same range of IC50: 0.005 to 250 nM for the first, 0.005 to 250 nM for the second.

`OCc1nc2ccc(Nc3nc4cccc(N[C@H]5CC[C@@H](O)CC5)n4n3)cc2[nH]1` [Example 195, cis-4-(2-(2-(hydroxymethyl)-1H-benzo[d]imidazol-6-ylamino)-[1,2,4]triazolo[1,5-a]pyridin-5-ylamino)cyclohexanol] and `Cc1n[nH]c2ccc(Nc3nc4cccc(N[C@H]5CC[C@H](O)CC5)n4n3)cc12` [compound 127, trans-4-(2-(3-methyl-1H-indazol-5-ylamino)-[1,2,4]triazolo[1,5-a]pyridin-5-ylamino)cyclohexanol] fall in the same range of IC50: 0.005 to 250 nM for the first, 0.005 to 250 nM for the second.

`CC(C)n1ncc2ccc(Nc3nc4cccc(CN5CCNC(=O)C5)n4n3)cc21` [Example 188, 4-((2-(1-isopropyl-1H-indazol-6-ylamino)-[1,2,4]triazolo[1,5-a]pyridin-5-yl)methyl)piperazin-2-one] and `COCc1nc2ccc(Nc3nc4cccc(CC5CCOCC5)n4n3)cc2[nH]1` [compound 132, N-(2-(methoxymethyl)-1H-benzo[d]imidazol-6-yl)-5-((tetrahydro-2H-pyran-4-yl)methyl)-[1,2,4]triazolo[1,5-a]pyridin-2-amine] fall in the same range of IC50: 0.005 to 250 nM for the first, 0.005 to 250 nM for the second.

`Fc1cccc(-c2cccc3nc(Nc4ccc5[nH]ncc5c4)nn23)c1` [compound 2, 5-(3-fluorophenyl)-N-(1H-indazol-5-yl)-[1,2,4]triazolo[1,5-a]pyridin-2-amine] and `O=S1(=O)NCc2ccc(Nc3nc4cccc(-c5ccccc5)n4n3)cc21` [compound 37] fall in the same range of IC50: 0.005 to 250 nM for the first, 0.005 to 250 nM for the second.

Compared with `COCCn1nc(C)c2ccc(Nc3nc4cccc(N[C@H]5CC[C@@H](O)CC5)n4n3)cc21` [Example 194, cis-4-(2-(1-(2-methoxyethyl)-3-methyl-1H-indazol-6-ylamino)-[1,2,4]triazolo[1,5-a]pyridin-5-ylamino)cyclohexanol], `Cc1nn(C)c2cc(Nc3nc4cccc(N[C@H]5CC[C@@H](O)CC5)n4n3)cc(F)c12` [Example 149, cis-4-(2-(4-fluoro-1,3-dimethyl-1H-indazol-6-ylamino)-[1,2,4]triazolo[1,5-a]pyridin-5-ylamino)cyclohexanol] is lower in IC50: 250 to 500 nM for the first, 0.005 to 250 nM for the second. The second is the more potent here.

First: CN1C(=O)C(C)(C)c2ccc(Nc3nc4cccc(N[C@H]5CC[C@H](O)CC5)n4n3)cc21 (stereo in doubt) [Example 146, trans-6-(5-(4-hydroxycyclohexylamino)-[1,2,4]triazolo[1,5-a]pyridin-2-ylamino)-1,3,3-trimethylindolin-2-one]
Second: O[C@H]1CC[C@@H](Nc2cccc3nc(Nc4ccn5ccnc5c4)nn23)CC1 [compound 112, cis-4-(2-(imidazo[1,2-a]pyridin-7-ylamino)-[1,2,4]triazolo[1,5-a]pyridin-5-ylamino)cyclohexanol]
The IC50 of the first is lower: 0.005 to 250 nM for the first, 1000 to 10000 nM for the second. The first is the more potent here.

First: c1ccc(Nc2nc3cccc(-c4ccccc4)n3n2)cc1 [Example 98]
Second: Cc1n[nH]c2cc(Nc3nc4cccc(N[C@H]5CC[C@@H](O)CC5)n4n3)cc(F)c12 [Example 164, cis-4-(2-(4-fluoro-3-methyl-1H-indazol-6-ylamino)-[1,2,4]triazolo[1,5-a]pyridin-5-ylamino)cyclohexanol]
The IC50 of the first is higher: 500 to 1000 nM for the first, 0.005 to 250 nM for the second. The second is the more potent here.

Molecule `Cn1nc(NC2CCOCC2)c2ccc(Nc3nc4cccc(CC5CCOCC5)n4n3)cc21` [Example 99] has an IC50 of 1000 to 10000 nM.
